Laboratory results reported in patent publication US20250367283A1, “MEVALONATE PATHWAY INHIBITOR AS HIGHLY-EFFICIENT VACCINE ADJUVANT” (Tsinghua University, priority 2015, published 2025).

Experiments:
[1] = tested on: anti-OVA IgG antibody affinity; assay: Antibody affinity by sodium thiocyanate disruption; type: in vivo, mice; conditions: for antibody affinity vs PBS control: IC50 of sodium thiocyanate, after boost
Text: Antibody affinity refers to the strength of an antibody to bind to the epitope of an antigen, which is a very important indicator when evaluating an antibody. It is due to gene mutations of antibody-forming cells themselves and selective activation of antigens for B cell clones. The functional state of the body is the result of long-term evolution and continuous adaptation to the external environment, which is of great significance to the defense of the body and the maintenance of autoimmune monitoring. In an in vitro test, the affinity of an antibody is determined by disrupting the antigen-antibody binding by sodium thiocyanate. The determination of antibody affinity is based on the fact that sodium thiocyanate can disrupt the binding of antigen and antibody, and the stronger the affinity of the antibody, the higher the concentration of sodium thiocyanate is required to dissociate the antigen and antibody. From another aspect if the affinity of the antibody is stronger, the effect of an adjuvant is better.
The OVA protein was diluted to a concentration of 2 μg/ml with a carbonate solution of pH 9.6, coated in a 96-well ELISA plate at 50 μl per well, and left at 4° C. overnight. The ELISA plate was washed five times with PBS containing 0.05% Tween 20, blocked with 1% BSA solution at 200 μl per well, and incubated at room temperature for 2 h. The ELISA plate was washed five times with PBST and the serum with certain dilution was added. Specifically, for the dilutions, the PBS group was not diluted, the simvastatin group was diluted 16-fold, the TH-Z80 group was diluted 16-fold, the TH-Z93 group was diluted 32-fold, the TH-Z145 group was diluted 16-fold, the imiquimod group was diluted 8-fold, the PEI group was diluted 8-fold, the aluminum adjuvant group was diluted 8-fold, the MF59 group was diluted 16-fold, the incomplete Freund's adjuvant group was diluted 32-fold, and the complete Freund's adjuvant group was diluted 64-fold. Before adding sodium thiocyanate, the amount of anti-OVA IgG type antibody in the diluted serum was the same, 50 μl per well, and incubated for 2 h at room temperature. After washing the ELISA plate with PBST for five times, 10 mM, 9.5 mM, 9 mM, 8.5 mM, 8 mM, 7.5 mM, 7 mM, 6.5 mM,6 mM, 5.5 mM, 5 mM, 4.5 mM, 4 mM, 3.5 mM, 3 mM, 2.5 mM, 2 mM, 1.5 mM, and 0.5 mM sodium thiocyanate were added to each well at 50 μl per well, and incubated for 30 min at room temperature. After washing the ELISA plate for five times with PBST, HRP-labeled goat-anti-mouse antibody was added to each well at 50 μl per well and incubated for 45 min at room temperature. The ELISA plate was washed for five times with PBST, and a color developing solution of sodium citrate OPD was added. After 10 min of color development in the dark, sulfuric acid was added to terminate the reaction. According to the readings of ELIASA, the Prism software was used to calculate the IC50 of sodium thiocyanate. The higher the IC50 value, the stronger the antibody affinity produced by the immunization.
In an in vitro test, the affinity of the antibody was determined by disrupting the binding of the antigen to the antibody by NaSCN. The procedure was as follows: a 96-well ELISA plate was coated with 2 μg/ml OVA, and blocked with 2% BSA. […] Absorbance values at OD 490 nm were read. The IC50 values of NaSCN inhibition were calculated. […]

[2] = tested on: anti-OVA serum antibody; assay: OVA immunization with bisphosphonates (Example 15), serum antibody titer; type: in vivo, mice; conditions: 100 μg, intramuscular, 14 days
Method: During the immunization, the antigen we used was ovalbumin (OVA). Mice were c57bl/6 female mice at the age of 8 weeks. OVA was formulated at a concentration of 1 mg/ml and bisphosphonate concentration was 1 mg/ml. OVA and bisphosphonates were mixed at a ratio of 1:1 at the time of immunization. Mice were injected intramuscularly with […]. 100 μg of OVA and 100 μg of bisphosphonate per mouse. 14 days after immunization, 100 μl of orbital blood was taken from each mouse.
The whole blood which had been obtained was placed in a 4° C. freezer overnight. The next day, the whole blood at 4° C. was centrifuged at a speed of 6000 rpm at a temperature of 4° C. for 5 minutes. After the centrifugation, the upper serum was carefully taken out and centrifuged again at a speed of 6000 rpm at a temperature of 4° C. for 5 minutes. The upper serum was taken again. Serum was frozen and stored at-20° C. and thawed when tested.
1. Coating: antigen OVA was diluted to a protein content of 2 μg/ml with 0.05M pH 9.6 carbonate coating buffer. Each reaction well of a polystyrene plate was coated with 50 μl of the solution overnight at 4° C. or 2 h at 37° C. […]
7. On an ELISA detector, the OD value was read at 490 nm. Titers of serum antibody were calculated. Serum dilutions were calculated as titers of serum antibody based on an OD value greater than or equal to 1.5 times of the reading of the negative control well.

Molecule | antibody affinity vs PBS control [1] | antibody affinity compared to PBS ([1]; NaSCN IC50, 7 days after boosting) | antibody titers vs conventional bisphosphonates [2] | adjuvant effect by carbon chain length of the side chain [2]
CCCCCCOc1ccc2c(c1)ncn2CC(O)(P(=O)(O)O)P(=O)(O)O [TH-Z80] | significantly high titers and antibody affinities | significantly increased the affinity | higher titers of antibodies than conventional bisphosphonates | 
CCCCCCCCOc1ccc2c(c1)ncn2CC(O)(P(=O)(O)O)P(=O)(O)O [TH-Z81] |  |  |  | strongest effect as an adjuvant
CCCCCCOc1ccnc(NC(P(=O)(O)O)P(=O)(O)O)c1 [TH-Z93, (((4-(hexyloxy)pyridin-2-yl)amino)methylene)bisphosphonic acid] | significantly high titers and antibody affinities |  |  | 
CCC(C)(C)C(=O)O[C@H]1C[C@@H](C)C=C2C=C[C@H](C)[C@H](CC[C@@H]3C[C@@H](O)CC(=O)O3)[C@H]21 [simvastatin, reference compound] | significantly high titers and antibody affinities |  |  | 
(2-(3-(octyloxy)phenyl)ethane-1,1-diyl)bisphosphonic acid [TH-Z145] | significantly high titers and antibody affinities |  |  | 
